Test system: 171881-019-R-J1-PDC tumor spheroids, viability
Assay: Anticancer human tumor 171881-019-R-J1-PDC patient-derived invasive breast carcinoma cell line growth inhibition [GQUAD]
Conditions: spheroids with HUVEC and MSC; for IC50: curve of first compound; for viability, T/C: stronger effect = lower value
Outline: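 Tumor cells were grown as complex spheroids with HUVEC endothelial cells and mesenchymal stem cells as stroma. G-quadruplex stabilizers were combined with targeted agents over half-log dilutions from near the clinical Cmax, or from 10 microM.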

[1] = second compound 0.0316 µM, first compound 0.0316 µM
[2] = second compound 0.0316 µM, first compound 0.1 µM
[3] = second compound 0.0316 µM, first compound 0.316 µM
[4] = second compound 0.0316 µM, first compound 1 µM
[5] = second compound 0.0316 µM, first compound 3.16 µM
[6] = second compound 0.0316 µM, first compound 10 µM
[7] = second compound 0.1 µM, first compound 0.0316 µM
[8] = second compound 0.1 µM, first compound 0.1 µM
[9] = second compound 0.1 µM, first compound 0.316 µM
[10] = second compound 0.1 µM, first compound 1 µM
[11] = second compound 0.1 µM, first compound 3.16 µM
[12] = second compound 0.1 µM, first compound 10 µM
[13] = second compound 0.316 µM, first compound 0.0316 µM
[14] = second compound 0.316 µM, first compound 0.1 µM
[15] = second compound 0.316 µM, first compound 0.316 µM
[16] = second compound 0.316 µM, first compound 1 µM
[17] = second compound 0.316 µM, first compound 3.16 µM
[18] = second compound 0.316 µM, first compound 10 µM
[19] = second compound 1 µM, first compound 0.0316 µM
[20] = second compound 1 µM, first compound 0.1 µM
[21] = second compound 1 µM, first compound 0.316 µM
[22] = second compound 1 µM, first compound 1 µM
[23] = second compound 1 µM, first compound 3.16 µM
[24] = second compound 1 µM, first compound 10 µM
[25] = second compound 3.16 µM, first compound 0.0316 µM
[26] = second compound 3.16 µM, first compound 0.1 µM
[27] = second compound 3.16 µM, first compound 0.316 µM
[28] = second compound 3.16 µM, first compound 1 µM
[29] = second compound 3.16 µM, first compound 3.16 µM
[30] = second compound 3.16 µM, first compound 10 µM
[31] = second compound 10 µM, first compound 0.0316 µM
[32] = second compound 10 µM, first compound 0.1 µM
[33] = second compound 10 µM, first compound 0.316 µM
[34] = second compound 10 µM, first compound 1 µM
[35] = second compound 10 µM, first compound 3.16 µM
[36] = second compound 10 µM, first compound 10 µM
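Note: spheroids exposed to compounds for 7 days.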
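Throughout, for viability, T/C: 100% = DMSO vehicle control viability.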

Cc1cccc(N(C)C(=O)C2C(O)CCN2c2nc(C)cc(C(F)(F)F)c2C#N)c1 (stereo unspecified) + Cc1[nH]c2ccc(F)cc2c1-c1nc2c3cccnc3c3ncccc3c2[nH]1
IC50 (second compound 0.0316 µM): > 10000 nM | IC50 (second compound 0.1 µM): > 10000 nM | IC50 (second compound 0.316 µM): > 10000 nM | IC50 (second compound 1 µM): > 10000 nM | IC50 (second compound 3.16 µM): < 31.6 nM | IC50 (second compound 10 µM): 3920 nM | viability, T/C [1]: 113% | viability, T/C [2]: 94.4% | viability, T/C [3]: 95.6% | viability, T/C [4]: 95.9% | viability, T/C [5]: 100% | viability, T/C [6]: 69% | viability, T/C [7]: 105% | viability, T/C [8]: 106% | viability, T/C [9]: 93.7% | viability, T/C [10]: 90.3% | viability, T/C [11]: 81.9% | viability, T/C [12]: 77.8% | viability, T/C [13]: 97.4% | viability, T/C [14]: 95.3% | viability, T/C [15]: 91.9% | viability, T/C [16]: 91.4% | viability, T/C [17]: 102% | viability, T/C [18]: 80.7% | viability, T/C [19]: 91.7% | viability, T/C [20]: 77.7% | viability, T/C [21]: 91.8% | viability, T/C [22]: 74.6% | viability, T/C [23]: 90.5% | viability, T/C [24]: 79% | viability, T/C [25]: 23.7% | viability, T/C [26]: 18.9% | viability, T/C [27]: 30.2% | viability, T/C [28]: 25.2% | viability, T/C [29]: 20.3% | viability, T/C [30]: 22.3% | viability, T/C [31]: 47.4% | viability, T/C [32]: 59% | viability, T/C [33]: 48.1% | viability, T/C [34]: 60.5% | viability, T/C [35]: 48.8% | viability, T/C [36]: 44.3%

CCc1c2c(nc3ccc(O)cc13)-c1cc3c(c(=O)n1C2)COC(=O)[C@]3(O)CC + Cc1cnc(CNC(=O)c2c(=O)c3ccc(N4CCCN(C)CC4)nc3n3c2sc2ccccc23)cn1
IC50 (second compound 0.0316 µM): 2.09 nM | IC50 (second compound 0.1 µM): 3.31 nM | IC50 (second compound 0.316 µM): 5.81 nM | IC50 (second compound 1 µM): 8.53 nM | IC50 (second compound 3.16 µM): 7.26 nM | IC50 (second compound 10 µM): 5.9 nM | viability, T/C (second compound 0.0316 µM, first compound 0.000999 µM): 62.6% | viability, T/C (second compound 0.0316 µM, first compound 0.00316 µM): 39.1% | viability, T/C (second compound 0.0316 µM, first compound 0.00999 µM): 36.5% | viability, T/C [1]: 30.9% | viability, T/C (second compound 0.0316 µM, first compound 0.0999 µM): 26.2% | viability, T/C [3]: 19.9% | viability, T/C (second compound 0.1 µM, first compound 0.000999 µM): 57.7% | viability, T/C (second compound 0.1 µM, first compound 0.00316 µM): 49.3% | viability, T/C (second compound 0.1 µM, first compound 0.00999 µM): 43.5% | viability, T/C [7]: 35.3% | viability, T/C (second compound 0.1 µM, first compound 0.0999 µM): 26.4% | viability, T/C [9]: 20.2% | viability, T/C (second compound 0.316 µM, first compound 0.000999 µM): 61.6% | viability, T/C (second compound 0.316 µM, first compound 0.00316 µM): 55.5% | viability, T/C (second compound 0.316 µM, first compound 0.00999 µM): 46.1% | viability, T/C [13]: 35.5% | viability, T/C (second compound 0.316 µM, first compound 0.0999 µM): 27.7% | viability, T/C [15]: 18.8% | viability, T/C (second compound 1 µM, first compound 0.000999 µM): 60.3% | viability, T/C (second compound 1 µM, first compound 0.00316 µM): 53.2% | viability, T/C (second compound 1 µM, first compound 0.00999 µM): 51.6% | viability, T/C [19]: 34.3% | viability, T/C (second compound 1 µM, first compound 0.0999 µM): 24% | viability, T/C [21]: 15.8% | viability, T/C (second compound 3.16 µM, first compound 0.000999 µM): 60.8% | viability, T/C (second compound 3.16 µM, first compound 0.00316 µM): 50.1% | viability, T/C (second compound 3.16 µM, first compound 0.00999 µM): 52.9% | viability, T/C [25]: 35.4% | viability, T/C (second compound 3.16 µM, first compound 0.0999 µM): 26% | viability, T/C [27]: 13.8% | viability, T/C (second compound 10 µM, first compound 0.000999 µM): 52.3% | viability, T/C (second compound 10 µM, first compound 0.00316 µM): 55.1% | viability, T/C (second compound 10 µM, first compound 0.00999 µM): 47.4% | viability, T/C [31]: 37.3% | viability, T/C (second compound 10 µM, first compound 0.0999 µM): 24.8% | viability, T/C [33]: 12.6%

CC(C)(O)C1CCC(Nc2ccc3ncc(-c4cccc(C(F)(F)F)c4)n3n2)CC1 (stereo unspecified) + CN(C)c1ccc(Nc2c3ccc(NC(=O)CCN4CCCC4)cc3nc3cc(NC(=O)CCN4CCCC4)ccc23)cc1
IC50 (second compound 0.0316 µM): 1860 nM | IC50 (second compound 0.1 µM): 1840 nM | IC50 (second compound 0.316 µM): < 31.6 nM | IC50 (second compound 1 µM): < 31.6 nM | IC50 (second compound 3.16 µM): < 31.6 nM | IC50 (second compound 10 µM): < 31.6 nM | viability, T/C [1]: 99.9% | viability, T/C [2]: 103% | viability, T/C [3]: 102% | viability, T/C [4]: 73.8% | viability, T/C [5]: 30% | viability, T/C [6]: 25.6% | viability, T/C [7]: 94.5% | viability, T/C [8]: 99.5% | viability, T/C [9]: 101% | viability, T/C [10]: 77.1% | viability, T/C [11]: 24.3% | viability, T/C [12]: 27.6% | viability, T/C [13]: 43.7% | viability, T/C [14]: 47.2% | viability, T/C [15]: 39.3% | viability, T/C [16]: 22.2% | viability, T/C [17]: 9.07% | viability, T/C [18]: 6.72% | viability, T/C [19]: 3.24% | viability, T/C [20]: 2.74% | viability, T/C [21]: 3.28% | viability, T/C [22]: 1% | viability, T/C [23]: 0.4% | viability, T/C [24]: 0.21% | viability, T/C [25]: 0.19% | viability, T/C [26]: 0.18% | viability, T/C [27]: 0.29% | viability, T/C [28]: 0.13% | viability, T/C [29]: 0.43% | viability, T/C [30]: 0.14% | viability, T/C [31]: 0.15% | viability, T/C [32]: 0.47% | viability, T/C [33]: 0.23% | viability, T/C [34]: 0.13% | viability, T/C [35]: 0.32% | viability, T/C [36]: 0.17%
